In ChEMBL document CHEMBL1157539, “Thousands of chemical starting points for antimalarial lead identification” (Nature, 2010):

Tested on: Plasmodium falciparum
Assay: GSK_TCMDC: Inhibition of Plasmodium falciparum 3D7 in whole erythrocytes, using parasite LDH activity as an index of growth.
Format: functional, organism-based
Conditions: Plasmodium falciparum, 3D7

Row | Compound | XC50
1 | CCC(Cc1cnc2nc(N)nc(N)c2n1)c1ccc(C(=O)O)cc1 (configuration not stated) | 250 nM
2 | COCCN1CCC(N(Cc2ccc(-c3ccc(OC(F)(F)F)cc3)cc2)C(=O)Cn2c(CCc3cccc(F)c3F)cc(=O)c3ccccc32)CC1 | 1210 nM
3 | CC(=O)Nc1ccc(OCCCCN(Cc2ccccc2C(F)(F)F)c2ccc(C#N)c(C(F)(F)F)c2)c(Cl)c1 | 981 nM
4 | CC(C)[C@H](NC(=O)c1ccc(O)c(-c2ccc(Cl)c(Cl)c2)c1)C(=O)NCCN(C)C | 1050 nM
5 | CCN(CCN(C)C)Cc1ccc(-c2ccc(NS(=O)(=O)c3cccc(Cl)c3)cc2)cc1 | 523 nM
6 | COc1cccc(O)c1CN1CCC2(CCCN(Cc3ccc(F)cc3)C2)C1 (configuration not stated) | 865 nM
7 | CC(C)(C)c1ccc(CNC(=O)c2ccc(-c3nc4cc(C(C)(C)C)ccc4[nH]3)cc2)cc1 | 840 nM
8 | Cc1c(CCC#N)c(NCc2ccccc2)n2c(nc3ccccc32)c1C#N | 876 nM
9 | Cc1cc(N2CCCC2)nc(NC(=N)Nc2cccc(C(F)(F)F)c2)n1 | 315 nM
10 | O=C1C[C@@H]([S+]([O-])Cc2nccs2)N1CCOCCCCCCc1ccc(Cl)cc1 (some centres not stated) | 1020 nM
11 | O=C(Nc1cccc(C(F)(F)F)c1)c1cccc(S(=O)(=O)NC2CCN(CC3CCCCC3)C2)c1 (configuration not stated) | 588 nM
12 | Cc1[nH]c(C)c(-c2ccc(-c3ccc(F)cc3)nc2)c(=O)c1Br | 248 nM
13 | Cc1cccc2nc(-c3ccc(-c4ccc(CNCc5ccc(S(C)(=O)=O)cc5)cc4)cc3)[nH]c12 | 752 nM
14 | Nc1nc(N)c2c(ccc3nn(Cc4cccnc4)cc32)n1 | 355 nM
15 | O=C(Nc1ccc(O)c(-c2nc3ccccc3[nH]2)c1)c1ccc([N+](=O)[O-])cc1 | 318 nM
16 | COc1ccccc1N1CCN(C(C(=O)NCc2ccc3c(c2)OCO3)c2ccc3c(c2)OCCCO3)CC1 (configuration not stated) | 1120 nM
17 | Cc1cc2nc(N=C3NC4(c5ccccn5)NC(=Nc5nc6cc(C)c(C)cc6[nH]5)NC4(c4ccccn4)N3)[nH]c2cc1C (configuration not stated) | 683 nM
18 | COc1cc(NC(=O)/C=C/c2ccccc2OC(F)(F)F)cc(OCCN2CCC(O)(c3ccccc3)CC2)c1 | 285 nM
19 | O=C(NCCCCN1CCC(O)(c2ccc(Cl)cc2)CC1)c1ccc(Br)cc1 | 1250 nM
20 | CC(C(=O)N1CCCC1)N1CCN(C(c2ccccc2)c2ccccc2)CC1 (configuration not stated) | 1100 nM
21 | COCCNCc1ccc(-c2cccc(CN(C(=O)NCCc3ccccc3)C3CCN(Cc4ccccc4)CC3)c2)cc1 | 918 nM
22 | Cc1n[nH]c2cc(Nc3ccnc(Nc4ccc(CN5CCOCC5)cc4)n3)ccc12 | 950 nM
23 | CNC(=O)C1Cc2c([nH]c3ccc(Cl)cc23)C2(CCN(CCc3ccccc3)CC2)N1 (configuration not stated) | 893 nM
24 | CCC(=O)c1ccc(-c2ccc(=O)n(CC(=O)N(CCN(CC)CC)Cc3ccc(-c4ccc(C(F)(F)F)cc4)cc3)n2)cc1 | 715 nM
25 | CCn1ncc(Cl)c1CN(C)S(=O)(=O)c1ccc2ccccc2c1 | 818 nM

Row | Compound | XC50
26 | CC(C)c1ccc(NC(=O)c2ccc(C(=O)NC3CCN(CC4CCCCC4)C3)cc2)cc1 (configuration not stated) | 792 nM
27 | CS(=O)(=O)c1ccc(-c2cnc(N)c(-c3cccc(O)c3)c2)cc1 | 695 nM
28 | COc1cc(Nc2ccnc3ccc(C(C)(C)C)cc23)cc(OC)c1OC | 610 nM
29 | O=C(NC1CC1)c1cnc(N2CCCC(c3ccccc3)C2)c(Cl)c1 (configuration not stated) | 797 nM
30 | CCN(CCCN1CCCCC1)c1nc(C)cc(Nc2ccc(Cl)cc2)n1 | 837 nM
31 | CC(C)CNCc1cccc(-c2cccc(CN(CCN(C)C)C(=O)Nc3ccccc3)c2)c1 | 795 nM
32 | COc1ccc(Nc2nccc(NCCNC(=O)c3cc4ccccc4s3)n2)cc1 | 1020 nM
33 | Cc1[nH]c2ccccc2c1C1=CCN(CCN2CCCc3c(Br)cccc3C2=O)CC1 | 659 nM
34 | CN(C)CCCOc1cccc(NC(=O)Nc2ccc(Cl)c(Cl)c2)c1 | 956 nM
35 | CCOc1ccc(CCCON2C(=N)N=C(N)NC2(C)C)cc1 | 3.2 nM
36 | O=C(NCCCCN1CCN(c2cccc(Cl)c2Cl)CC1)c1ccc2c(c1)CCN(C1CCC1)CC2 | 747 nM
37 | Cc1nnsc1C(=O)Nc1cccc(-c2ccc(-c3nc4ccccc4[nH]3)cc2)c1 | 870 nM
38 | CNC(=O)/C=C/c1cc(NC(=O)Nc2ccnc3c(Br)cccc23)ccc1OC | 864 nM
39 | O=C(/C=C/c1ccc(Cl)c(Cl)c1)NC1CCC(N2CCC(c3c[nH]c4ccc(O)cc34)CC2)CC1 (configuration not stated) | 921 nM
40 | COc1ccc(COc2c(OC)cc(Cc3cnc(N)nc3N)cc2OC)cc1 | 912 nM
41 | CC(C)C1=NC(=O)c2cc([N+](=O)[O-])ccc2CN1 | 149 nM
42 | N#Cc1ccc(CN2CCC(Oc3ccc(NC(=O)c4cccs4)cc3)C2)cc1 (configuration not stated) | 953 nM
43 | O=C(NCCCCCN1CCC(c2c[nH]c3ccccc23)CC1)Nc1ccc(Br)cc1 | 925 nM
44 | CCCCN1CCN(CC(O)CNC(=O)Nc2ccc(Cl)cc2)CC1 (configuration not stated) | 68.5 nM
45 | Fc1c(CNCC2CCN(CC3CCCCC3)CC2)cccc1C(F)(F)F | 900 nM
46 | COc1ccc(OC)c2c1CCN(C)C2Cc1cccc2ccccc12 (configuration not stated) | 1050 nM
47 | COc1ccc(Br)cc1C1C2C(=O)N(c3ccc(Br)cc3)C(=O)C2C2(C(=O)O)CC(OCc3ccccc3)CN12 (configuration not stated) | 195 nM
48 | O=C(Nc1cccc(C(F)(F)F)c1)Nc1ccc(F)c([N+](=O)[O-])c1 | 696 nM
49 | Oc1ccc2c(c1NCC1CCCCC1)CCCC2 | 514 nM
50 | O=C(Nc1ccccc1)c1nn(CCCN2CCC(N3CCCC3)CC2)cc1-c1ccc(Cl)c(Cl)c1 | 240 nM

Row | Compound | XC50
51 | CC(C)c1ncc(-c2ccncc2)c(C2CCC(CNC(=O)c3ccncc3)CC2)n1 (configuration not stated) | 1350 nM
52 | Cc1cnc(Nc2cccc(CCN3CCOCC3)c2)nc1NC(C)C | 738 nM
53 | O=C(Nc1ccc(Cl)cc1)N(CC1CC2CCC(C1)N2Cc1ccc(C(F)(F)F)cc1)c1ccc(N2CCOCC2)c(F)c1 (configuration not stated) | 1070 nM
54 | Clc1ccc(Cn2nc(Br)nc2Br)c(Cl)c1 | 439 nM
55 | CCN(CC)CCCC(C)Nc1c(-c2ccc(Br)cc2)cnc2ccccc12 (configuration not stated) | 703 nM
56 | CCCCCCn1c(Sc2ccc(C#N)c([N+](=O)[O-])c2)nnc1-c1ccccc1 | 772 nM
57 | O=C(Cc1cccc(Cl)c1)Nc1cccc(-c2c[nH]c3nc(Nc4cccc(OCc5ccccc5)c4)ncc23)c1 | 1040 nM
58 | CCC[C@@H]([C@@H](CC(C)C)C(=O)N[C@@H](CCCCNC(=O)OCc1ccccc1)C(=O)Nc1ncccn1)N(O)C=O | 59.1 nM
59 | CCc1ccc(NC(=O)c2ccc(CN3CCCN(CCC(C)C)CC3)cc2)cc1 | 632 nM
60 | COc1cc2nc(NC3CCN(Cc4ccccc4)CC3)nc(N)c2cc1OC | 166 nM
61 | CS(=O)(=O)Nc1cccc(-c2cnc3[nH]cc(-c4ccc(C(=O)O)cc4)c3c2)c1 | 857 nM
62 | O=C(NC1CCCCN(Cc2ccccc2O)C1)c1cccc(C(F)(F)F)c1 (configuration not stated) | 795 nM
63 | CN(CCCNC(=S)NC12CC3CC(CC(C3)C1)C2)CCCNc1ccnc2cc(Cl)ccc12 | 121 nM
64 | CC[C@H]1CN2CC[C@H]1C[C@@H]2[C@@H](O)c1cc(Cl)nc2ccc(OC)cc12 | 63.5 nM
65 | COc1cccc(CNC[C@@H](O)[C@H](Cc2ccccc2)NC(=O)c2cc3c4c(c2)c(C(C)C)cn4CCS(=O)(=O)N3C)c1 | 154 nM
66 | COc1cccc(NC(=O)Nc2cc(C)nc3ccccc23)c1 | 723 nM
67 | O=C(Cn1c(SCc2cccc(F)c2F)cc(=O)c2ccccc21)N(CCn1ccnc1)Cc1ccc(-c2ccc(C(F)(F)F)cc2)cc1 | 770 nM
68 | O=C(Cn1c(=O)cnc2ccccc21)Nc1cccc(C(=O)Nc2cccc(C(F)(F)F)c2)c1 | 277 nM
69 | CCc1nc(N)nc(N)c1-c1ccc(F)cc1 | 407 nM
70 | CC(=O)Nc1ccc(S(=O)(=O)N(Cc2cccc(Oc3ccccc3)c2)C2CCN(C/C=C(\C)CCC=C(C)C)CC2)cc1 | 192 nM
71 | O=C(NCC1CCN(Cc2ccc(F)cc2)C1)c1cc(-c2cccc(C(F)(F)F)c2)cs1 (configuration not stated) | 960 nM
72 | Nc1oc2c(CN3CCCCCC3)c(O)ccc2c(=O)c1-c1nc2ccccc2s1 | 516 nM
73 | COc1ccccc1CNc1ncc(-c2ccsc2)c(-c2nccs2)n1 | 333 nM
74 | Cc1ccc(CN2CCCN(Cc3cccc(NC(=O)c4cc5ccccc5s4)c3)CC2)cc1 | 1190 nM
75 | CN(C)CCN(C)Cc1ccc(-c2ccc(NC(=O)c3cccc(C#N)c3)cc2)cc1 | 1270 nM

Row | Compound | XC50
76 | O=C(NCCCCN1CCC(C(c2ccccc2)c2ccccc2)CC1)c1ccc(NC(=O)c2ccc(Cl)cc2)cc1 | 769 nM
77 | CCN(CC)CCCN(CCCN(CC)CC)c1cc(C)nc(Nc2ccc(Br)cc2)n1 | 200 nM
78 | CC(C)CCCC(C)(C)NC[C@@H](O)[C@H](Cc1ccccc1)NC(=O)c1cc(NC(C)C)cc(N2CCCCS2(=O)=O)c1F | 219 nM
79 | CC(C)(C)c1ccc(-c2cc(C(=O)N[C@@H](CO)C(=O)O)on2)cc1.CC(C)(C)c1ccc(-c2nocc2C(=O)N[C@@H](CO)C(=O)O)cc1 | 966 nM
80 | COCCOc1cc(C)c(C2CCN(CCCCNC(=O)c3ccc(NC(=O)c4ccc(Cl)cc4)cc3)CC2)cc1C | 951 nM
81 | Clc1ncnc2scc(-c3ccc(Br)cc3)c12 | 886 nM
82 | COc1ccc(Nc2nc(N3CCCC3)c3ccccc3n2)cc1 | 750 nM
83 | CCCCCCOc1ccc(C(=O)N[C@H]2CCN(CCCCCNC(=O)/C=C/c3ccc(Cl)c(Cl)c3)C2)cc1 | 695 nM
84 | CC(C)NCc1ccc(-c2cccc(-c3nc4cc(C(F)(F)F)ccc4[nH]3)c2)cc1 | 262 nM
85 | COC(=O)c1cccc(CNCc2ccc(-c3ccc(-c4nc5cc(F)ccc5[nH]4)s3)cc2)c1 | 588 nM
86 | Fc1ccc2[nH]cc(CCN3CCC(CNCc4ccccc4)CC3)c2c1 | 33 nM
87 | Cc1ccc(O)cc1Nc1ccnc2ccc(C(C)(C)C)cc12 | 1250 nM
88 | Cc1onc(-c2ccccc2)c1-c1nc(NCCC(c2ccccc2)c2ccccc2)no1 | 835 nM
89 | CCc1cc(COc2ccc(CNCCC(C)C)cc2I)c(OCc2ccccc2)c(COc2ccc(CNCCC(C)C)cc2I)c1 | 1110 nM
90 | O=C(NCCCCN1CCN(c2cccc3c2CCCC3)CC1)c1ccc(NC(=O)c2ccc(Cl)cc2)cc1 | 447 nM
91 | Clc1ccc(-c2csc3ncnc(Cl)c23)cc1 | 460 nM
92 | O=[N+]([O-])c1cnc(Nc2ccccc2O)nc1Nc1ccccc1O | 897 nM
93 | COc1cccc2c1CCN(CCN1CCC(NC(=O)c3ccc(-c4cccc(Cl)c4Cl)cc3)CC1)C2 | 699 nM
94 | Cc1nc(SCC(=O)N2CCCC2=O)c2c(C)c(C)sc2n1 | 170 nM
95 | CS(=O)(=O)c1ccc2c(c1)CCN(CCC1CCC(NC(=O)c3cc4cccc(Br)c4[nH]3)CC1)CC2 (configuration not stated) | 1040 nM
96 | C[C@@H]([C@@H](CCCCc1ccccc1)C(=O)N[C@H](C(=O)Nc1cccnc1)C(C)(C)C)N(O)C=O | 929 nM
97 | COc1ccc(C(=O)CCC(=O)N(Cc2ccc(-c3ccc(CNCCc4ccccc4)cn3)cc2)C(C)CN(C)C)cc1F (configuration not stated) | 747 nM
